Literature values as cited in patent US9060510B2 (priority 2005, dated 2015).
Like-named read-outs stand apart in the source and are kept apart here.

Compound: CCN(Cc1ccc(Cl)nc1)/C(=C/[N+](=O)[O-])NC [Nitempyram, (E)-N-(6-chloro-3-pyridylmethyl)-N-ethyl-N′-methyl-2-nitrovinylidenediamine]
- water-solubility (at pH 7.0, 20° C.): > 590 mg/mL

Compound: (E)-1-(2-chloro-1,3-thiazol-5-yl)-3-methyl-2-nitroguanidine [Clothianidin]
- water-solubility (at pH 4.0, 20° C.): 0.304 mg/mL
